Settings: buffer

SMILES	Log S
Oc1cccc(Cl)c1Cl	-1.3
Clc1c(Cl)c(Cl)c(-c2ccccc2)c(Cl)c1Cl	-7.78
COC(=O)[C@@H]1C2CC[C@@H](C[C@@H]1OC(=O)c1ccccc1)N2C (single isomer, unassigned) [COCAINE]	-2.25
COC(C)=O [ACETIC ACID METHYL ESTER]	0.46
CCO [ALCOHOL]	1.1
Nc1ccccc1 [ANILINE]	-0.41
COc1ccccc1 [ANISOLE]	-1.85
NC(=O)c1ccccc1 [BENZAMIDE]	-0.96
O=C(O)c1ccccc1 [BENZOIC ACID]	-1.55
c1ccc(-c2ccccc2)cc1 [BIPHENYL]	-4.35
C=C(C)C1CC=C(C)C(=O)C1 (centres undefined) [CARVONE]	-2.06
CN(C)CCCN1c2ccccc2Sc2ccc(Cl)cc21 [CHLORPROMAZINE]	-5.1
c1ccc2c(c1)oc1ccccc12 [DIBENZOFURAN]	-4.6
CC/C(=C(/CC)c1ccc(O)cc1)c1ccc(O)cc1 [DIETHYLSTILBESTROL]	-4.07
O=C(O)Cc1ccccc1Oc1ccc(Cl)cc1Cl [FENCLOFENAC]	-3.85
COC1=CC(=O)C[C@@H](C)[C@]12Oc1c(Cl)c(OC)cc(OC)c1C2=O [GRISEOFULVIN]	-4.07
CCCCCC [HEXANE]	-3.84
c1ccc2[nH]ccc2c1 [INDOLE]	-1.21
O=C1Nc2ccc(Cl)cc2C(c2ccccc2Cl)=NC1O (centres undefined) [LORAZEPAM]	-3.6
C1COCCN1 [MORPHOLINE]	1.97
O=[N+]([O-])c1ccccc1 [NITROBENZENE]	-1.8
O=C1CN(/N=C/c2ccc([N+](=O)[O-])o2)C(=O)N1 [NITROFURANTOIN]	-3.38
CCOC(=O)NCCOc1ccc(Oc2ccccc2)cc1 [PHENOXYCARB]	-4.7
CCCO [PROPANOL]	0.62
c1ccc2ncccc2c1 [QUINOLINE]	-1.3
O=C(O)c1ccccc1O [SALICYLIC ACID]	-1.82
Cc1ccccc1 [TOLUENE]	-2.21
CC(=O)CC(c1ccccc1)c1c(O)c2ccccc2oc1=O (centres undefined) [WARFARIN]	-4.26
Cc1ccc(O)cc1 [p-CRESOL]	-0.73

From ChEMBL document CHEMBL1132890, “Prediction of drug solubility from Monte Carlo simulations” (Bioorg Med Chem Lett, 2000)
